Results reported in patent US9339509B2, “Methods of use to orally and topically treat acne and other skin conditions by administering a 19-nor containing vitamin D analog with or without a retinoid” (Wisconsin Alumni Research Foundation, priority 2006, dated 2016).
“Also recorded” adds a separate entry of the source.

Legend:
Rhino mouse [1] = assay: Comedolytic effect of oral administration to the Rhino mouse (comedone area); type: in vivo
Excerpt: (§1) Rhino mice were used to topically and orally test the compounds and compositions of the invention. The Rhino mouse is a well-established animal model used to study the comedolytic effects of anti-acne agents including retinoids. (See Boulcier M et al., Experimental Models in Skin Pharmacology, 1990, In Pharmacological Reviews 42:127-15). Mirshahpanah and Maibach, 2007, Cutaneous and Ocular Toxicology 26:195-202). The Rhino mouse model was used to study the therapeutic potential of 2-Methylene-19-nor-20(S)-1α-hydroxy-bishomopregnacalciferol (2MBisP), 19-Nor-26,27-dimethylene-20(S)-2-methylene-1α,25-dihydroxyvitamin D3 (CAGE-3), NEL, 24R-2MD2, Vit-III (17-20E), 2MPregna, 2MP, 20R-2MbisP, 2MTrisP, FF-44, FF-55, HPBS, VD-03 and atRA.
(§2) Animals and dose administration. Rhino mice 6-10 weeks old were dosed via the oral and/or topical route. In the majority of studies, the mice were dosed daily. In one topical study, the efficacy of daily versus intermittent (Monday/Wednesday/Friday) dosing was compared. The mice were weighed three times per week and doses were adjusted weekly based on body weight. The topical formulations were applied to the back of the animal in a maximum volume of 110 μL. The topical formulations were made by mixing the APIs with a topical carrier comprising 70 vol % propylene glycol and 30 vol % ethanol or 30 vol % propylene glycol and 70 vol % ethanol, as indicated. The topical vehicle control was the vehicle carrier solution matched to the formulation containing API and vehicle carrier.
(§3) The oral formulation was made by mixing the APIs with Wesson® soybean oil or NeoBee® oil. The oral dose was delivered to the back of the mouth of each mouse. Mice were sacrificed 4 hours after the final oral dose and 72 hours after the final topical dose. At sacrifice, the dorsal skin was collected for histological studies.
(§4) Comedolytic effect. The extent of the comedolytic effect (i.e., efficacy) was assessed by measuring the average area of the comedones, whereby the smaller the area, the larger the effect. The comedone area was determined by histological analysis of tissue sections based on a method developed in our lab (see FIG. 2). Skin was fixed overnight in 4% paraformaldehyde at 4 deg. C. with gentle agitation and dehydrated the next day into 100% methanol. Samples were embedded in paraffin and a total of nine 10 micron sections 150 microns apart were prepared from each Rhino mouse. Five of the nine sections were digitally imaged (6× magnification) for comedone analysis using Metamorph Imaging Software (trace function). The perimeter of each comedone on the images taken from the 5 sections was then traced using a Wacom Intuos 3 Graphics Tablet interfaced with the software. The number of pixels comprising the area of each individual comedone was obtained and transferred to an Excel spreadsheet, and the mean number of pixels per comedone was obtained for each Rhino mouse. For comedones that were completely healed (area=0) a pixel value approaching 0 (<10) was entered into the spreadsheet. The individual comedone area average for each mouse was then used to calculate the treatment group mean. Results in the figures are expressed in terms of mean±standard error of the mean.
Preparation of oral dosing solutions containing 2MBisP, CAGE-3, 24R-2MD2, VitIII (17-20E) and NEL. Separate concentrated stocks of 2MBisP, CAGE-3, 24R-2MD2, VitIII (17-20E) and NEL were obtained in ethanol. The concentration was determined spectrophotometrically using a molar extinction coefficient=42,000 and a λmax=252.7. […] The final dose was delivered in ≦50 μL of oil.
Preparation of oral atRA dosing formulation. A concentrated stock solution containing atRA was prepared in dichloromethane. The atRA concentrated stock solution was diluted into ethanol. The concentration of atRA in that diluted stock solution was determined spectrophotometrically, whereby the molar extinction coefficient=45,200 and λmax=350. The purity of atRA was determined to be >99% by HPLC. […]

Rhino mouse [2] = assay: Combination of oral atRA and topical 2MBisP in the Rhino mouse (comedone area, skin morphology); type: in vivo
Description: as §2, §3
as §4, with “the mean. […]” for “the mean.”
Preparation of oral atRA dosing formulation. […] The concentration of atRA in that diluted stock solution was determined spectrophotometrically, whereby the molar extinction coefficient=45,200 and λmax=350. The purity of atRA was determined to be >99% by HPLC. […]

Rhino mouse [3] = assay: Comedolytic effect of topical application to the Rhino mouse (comedone area); type: in vivo; details: for comedone area (FIG. 5): 30 vol % ethanol/70% propylene glycol; for comedone area relative to vehicle-treated group (FIG. 11): 72 h after final dose
Excerpt: as §1, §2, §3, §4
Preparation of topical formulations containing 2MBisP, CAGE-3, 24R-2MD2, VitIII (17-20E), NEL, VD-03, 2MPregna, 2MP, 20R-2MBisP, 2MTrisP, FF-44, FF-55, and HPBS. Separate concentrated ethanolic stocks of 2MBisP, CAGE-3, 24R-2MD2, VitIII (17-20E) and NEL were diluted to a final concentration containing 70 vol % propylene glycol and 30 vol % ethanol or 30 vol % propylene glycol and 70 vol % ethanol as the excipient carrier system. The mixture was thoroughly mixed. The topical dosing formulation delivered the desired dosing amount of drug on a per kilogram body weight basis. A dose ranging from 100-110 μL in volume was administered to the back of the mouse. An average weight of 24 or 30 g/mouse was assumed in dose volume calculations. […]

[4] = tested on: retinoic acid receptors (RARs); details: Repa J J et al., 1993; cited from earlier work
[5] = daily topical 3 weeks, 70 vol % ethanol/30 vol % propylene glycol, 220 nmole/kgBW/day

Structure (SMILES): C=C1[C@H](O)CC(=C/C=C2\CCC[C@]3(C)C([C@@H](C)CC)CC[C@@H]23)C[C@H]1O (stereo partly drawn) [2MBisP, 2-methylene-19-nor-20(S)-1α-hydroxy-bishomopregnacalciferol]
- comedone area (FIG. 12) (Rhino mouse [1]; oral daily 24 days, 522 nmole/kgBW/day): reduction in the comedone area
- comedone area vs vehicle control group (FIG. 15) (Rhino mouse [2]; 2MBisP alone topically 21 days (0.22 μmole/kgBW/day, 30 vol % ethanol/70 vol % propylene glycol) with oral vehicle 24 days): lacked significant efficacy
- skin morphology, H&E sections (FIG. 16) (Rhino mouse [2]; female Rhino mice, 2MBisP alone topically 0.22 μmole/kgBW/day, 30% ethanol/70% propylene glycol): did not alter skin morphology significantly
- response vs control in vivo at 0.022 µmol/kg (Rhino mouse [3]; Mus musculus, 504 h, daily topical ca. 3 weeks, 70 vol % ethanol/30 vol % propylene glycol, dose 22 nmol/kg, mean ± SEM, read-out: Comedone Area (% Vehicle)): 97 ± 9%
- response vs control in vivo at 0.069 µmol/kg (Rhino mouse [3]; Mus musculus, 504 h, daily topical ca. 3 weeks, 70 vol % ethanol/30 vol % propylene glycol, dose 69 nmol/kg, mean ± SEM, read-out: Comedone Area (% Vehicle)): 127 ± 12%
- response vs control in vivo at 0.217 µmol/kg (Rhino mouse [3]; Mus musculus, 504 h, daily topical ca. 3 weeks, 70 vol % ethanol/30 vol % propylene glycol, dose 217 nmol/kg, mean ± SEM, read-out: Comedone Area (% Vehicle)): 49 ± 3%
- response vs control in vivo at 0.694 µmol/kg (Rhino mouse [3]; Mus musculus, 504 h, daily topical ca. 3 weeks, 70 vol % ethanol/30 vol % propylene glycol, dose 694 nmol/kg, mean ± SEM, read-out: Comedone Area (% Vehicle)): 35 ± 4%
- response vs control in vivo at 2.187 µmol/kg (Rhino mouse [3]; Mus musculus, 504 h, daily topical ca. 3 weeks, 70 vol % ethanol/30 vol % propylene glycol, dose 2187 nmol/kg, mean ± SEM, read-out: Comedone Area (% Vehicle)): 32 ± 7%
- comedone area (FIG. 5) (Rhino mouse [3]; daily topical 3 weeks, 220 nmole/kgBW/day): no effect
- comedone area (FIG. 5) (Rhino mouse [3]; daily topical 3 weeks, 653 nmole/kgBW/day): near-maximal reduction in comedone area
- comedone area (FIG. 7) (Rhino mouse [3]; daily topical 3 weeks, 70 vol % ethanol/30 vol % propylene glycol, 22 nmole/kgBW/day): no effect
- comedone area relative to vehicle-treated group (FIG. 8, 9, 10) (Rhino mouse [3]; daily topical 3 weeks, 70 vol % ethanol/30 vol % propylene glycol, 217 nmole/kgBW/day): significant reduction in comedone area
- comedone area (FIG. 7) (Rhino mouse [3]; [5]): significant reduction in comedone area
- reduction in comedone area (FIG. 6) (Rhino mouse [3]; [5]): > 50%
- comedone area (FIG. 6) (Rhino mouse [3]; daily topical 3 weeks, 70 vol % ethanol/30 vol % propylene glycol, 653 nmole/kgBW/day): greater reduction in comedone area as compared to the lower dose
- comedone area relative to vehicle-treated group (FIG. 8) (Rhino mouse [3]; daily topical 3 weeks, 70 vol % ethanol/30 vol % propylene glycol, 694 nmole/kgBW/day): significant reduction in comedone area
- comedone area relative to vehicle-treated group (FIG. 11) (Rhino mouse [3]; topical 217 nmole/kgBW daily (total of 22 doses), 70 vol % ethanol/30 vol % propylene glycol): significant reduction in comedone area
- comedone area relative to vehicle-treated group (FIG. 11) (Rhino mouse [3]; topical 217 nmole/kgBW intermittently Monday, Wednesday, Friday (total of 10 doses), 70 vol % ethanol/30 vol % propylene glycol): significant reduction in comedone area
- comedone area vs vehicle control (FIG. 3, FIG. 4) (Rhino mouse [3]; topical 3 weeks, 30 vol % ethanol/70 vol % propylene glycol, 5.4 μg/day (ca. 800 nmole/kgBW/day)): reduction in the comedone area; also recorded: reduced comedone area
- potency in the reduction of comedone area relative to 20R-2MBisP (Rhino mouse [3]; topical, 70 vol % ethanol/30 vol % propylene glycol, more potent than the 20R compound): approximately ½

Structure (SMILES): CC1=C(/C=C/C(C)=C/C=C/C(C)=C\C(=O)O)C(C)(C)CCC1 [13-cis retinoic acid, 13-cis-retinoic acid]
- binding to the RARs [4]: does not bind

Structure (SMILES): CC1=C(/C=C/C(C)=C/C=C/C(C)=C/C(=O)O)C(C)(C)CCC1 [atRA, all-trans-retinoic acid, reference compound]
- comedone size vs vehicle control (FIG. 2) (Rhino mouse [1]; oral, 3 weeks, 0.83 μmole/kgBW): insignificant reduction in comedone size
- comedone size vs vehicle control (FIG. 2) (Rhino mouse [1]; oral, 3 weeks, 16.6 μmole/kgBW): maximal reduction in comedone size
- comedone area, dose dependence (FIG. 2) (Rhino mouse [1]; oral, 3 weeks, various doses): dose-dependent reduction in comedone area
- comedone area vs vehicle control group (FIG. 15) (Rhino mouse [2]; atRA alone orally 24 days (830 nmole/kgBW/day) with topical vehicle 21 days): lacked significant efficacy
- skin morphology vs vehicle control, H&E sections (FIG. 16) (Rhino mouse [2]; female Rhino mice, atRA alone orally 830 nmole/kgBW/day in soybean oil): did not alter skin morphology significantly
